Laboratory results taken from US6352995B1, “Spiro-quinuclidine derivatives, their preparation and use” (Neurosearch A/S, priority 1997, dated 2002).
pIC50: −log10 of the molar value. Read-outs that look alike come from different tables or passages of the source.

Key:
[1] = target: nAChRs comprised of α4 and β2 subunits (3H-cytisine binding, cerebral cortex homogenate) (Rattus norvegicus, UniProt P09483+P12390); assay: In vitro inhibition of 3H-cytisine binding
Experimental: In Vitro Inhibition of 3H-cytisine Binding
The predominant subtype with high affinity for nicotine is comprised of α4 and β2 subunits. nAChRs of the latter type can selectively be labelled by the nicotine agonist ^3H-cytisine.
Tissue Preparation: Preparations are performed at 0-4° C. unless otherwise indicated. […] The homogenate is centrifuged at 27,000×g for 10 min. The supernatant is discarded and the pellet is resuspended in fresh buffer and centrifuged a second time. The final pellet is resuspended in fresh buffer (35 ml per g of original tissue) and used for binding assays.
Assay: Aliquots of 500 μl homogenate are added to 25 μl of test solution and 25 μl of ^3H-cytisine (1 nM, final concentration), mixed and incubated for 90 min at 2° C. Non-specific binding is determined using (−)-nicotine (100 μM, final concentration). After incubation the samples are added 5 ml of ice-cold buffer and poured directly onto Whatman GF/C glass fibre filters under suction and immediately washed with 2×5 ml ice-cold buffer. The amount of radioactivity on the filters is determined by conventional liquid scintillation counting. Specific binding is total binding minus non-specific binding.
Results are given as IC50 values; the concentration (μM) that inhibit binding of the radioactive ligand by 50 %.

[2] = target: nAChR formed by the α7 subunit (3H-α-bungarotoxin binding, cerebral cortex homogenate) (Rattus norvegicus, UniProt Q05941); assay: biochemical
[3] = background statement; cited from earlier work
[4] = rat cerebral cortex, 1 nM 3H-cytisine, 90 min at 2° C., read-out: 3H-cytisine IC50

nAChR formed by the α7 subunit (3H-α-bungarotoxin binding, cerebral cortex homogenate), sequence (Q05941 23-502): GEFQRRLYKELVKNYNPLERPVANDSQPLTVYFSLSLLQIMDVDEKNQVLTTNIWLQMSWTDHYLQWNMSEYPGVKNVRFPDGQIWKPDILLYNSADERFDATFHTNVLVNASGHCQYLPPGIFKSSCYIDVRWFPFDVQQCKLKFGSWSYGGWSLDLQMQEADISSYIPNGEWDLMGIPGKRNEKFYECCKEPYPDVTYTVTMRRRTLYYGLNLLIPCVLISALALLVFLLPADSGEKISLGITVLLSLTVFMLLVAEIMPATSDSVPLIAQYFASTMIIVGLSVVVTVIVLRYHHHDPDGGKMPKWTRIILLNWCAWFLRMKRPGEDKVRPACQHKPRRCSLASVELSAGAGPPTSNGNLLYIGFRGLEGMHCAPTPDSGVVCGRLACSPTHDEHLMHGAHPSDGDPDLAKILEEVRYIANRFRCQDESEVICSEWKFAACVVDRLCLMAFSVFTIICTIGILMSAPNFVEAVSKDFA
nAChRs comprised of α4 and β2 subunits (3H-cytisine binding, cerebral cortex homogenate), sequence (P09483 31-630): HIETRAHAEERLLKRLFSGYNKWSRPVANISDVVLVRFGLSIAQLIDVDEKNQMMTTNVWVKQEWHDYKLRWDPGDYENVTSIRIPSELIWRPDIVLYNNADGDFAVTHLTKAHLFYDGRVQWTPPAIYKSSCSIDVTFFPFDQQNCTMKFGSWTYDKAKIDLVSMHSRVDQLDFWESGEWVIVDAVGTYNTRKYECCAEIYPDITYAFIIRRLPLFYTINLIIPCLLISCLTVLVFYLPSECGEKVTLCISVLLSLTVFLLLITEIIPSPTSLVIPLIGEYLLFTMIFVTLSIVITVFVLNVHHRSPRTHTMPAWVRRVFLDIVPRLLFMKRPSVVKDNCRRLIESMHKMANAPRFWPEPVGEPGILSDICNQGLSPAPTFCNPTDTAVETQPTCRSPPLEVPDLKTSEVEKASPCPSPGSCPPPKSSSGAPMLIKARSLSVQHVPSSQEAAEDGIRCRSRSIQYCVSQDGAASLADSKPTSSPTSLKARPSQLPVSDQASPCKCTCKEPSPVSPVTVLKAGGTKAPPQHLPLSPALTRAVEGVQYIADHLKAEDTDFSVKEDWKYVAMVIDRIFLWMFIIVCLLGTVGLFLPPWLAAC
nAChRs comprised of α4 and β2 subunits (3H-cytisine binding, cerebral cortex homogenate), sequence (P12390 25-500): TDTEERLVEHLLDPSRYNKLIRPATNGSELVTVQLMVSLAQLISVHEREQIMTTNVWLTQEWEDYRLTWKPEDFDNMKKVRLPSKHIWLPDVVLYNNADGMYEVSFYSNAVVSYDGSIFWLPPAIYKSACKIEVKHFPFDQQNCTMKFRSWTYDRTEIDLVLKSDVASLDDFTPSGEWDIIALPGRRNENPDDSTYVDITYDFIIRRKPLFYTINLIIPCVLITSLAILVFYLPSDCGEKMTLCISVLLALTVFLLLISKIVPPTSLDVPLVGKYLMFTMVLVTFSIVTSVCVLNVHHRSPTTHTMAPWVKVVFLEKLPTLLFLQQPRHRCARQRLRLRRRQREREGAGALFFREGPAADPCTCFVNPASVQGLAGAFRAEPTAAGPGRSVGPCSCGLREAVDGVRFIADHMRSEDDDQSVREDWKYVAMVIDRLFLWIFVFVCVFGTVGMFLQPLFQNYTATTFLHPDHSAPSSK

Row | Structure (SMILES) | pIC50 [1, 4] | pIC50 [2] | melting point [°C] | pIC50 [1] | analgesic potency relative to morphine [3]
1 | Cc1ccc2c(c1)OC1(CN3CCC1CC3)O2 (racemic) [Compound 2a, (±)-6-methyl-spiro[benzo-1,3-dioxolane-2,3′-quinuclidine]] | 4.64 | 6.74 | 173 to 175 | – | –
2 | CC(C)(C)c1ccc2c(c1)OC1(CN3CCC1CC3)O2 (racemic) [Compound 3a, (±)-6-t.-Butyl-spiro[benzo-1,3-dioxolane-2,3′-quinuclidine]] | < 5.00 | 5.64 | 184 to 186 | – | –
3 | c1ccc2c(c1)OC1(CN3CCC1CC3)O2 [Compound 1a, Spiro[benzo-1,3-dioxolane-2,3-quinuclidine]] | – | 6.72 | 123 to 125 | 4.52 | –
4 | Clc1ccc(C2CC3CCC2N3)cn1 (stereo not shown) [Epibatidine] | – | – | – | – | ~500 times that of morphine
